Assay results reported in BindingDB's records for doi:10.7270/Q28051GP (Universiti Teknologi Mara, 2017).
pIC50: −log10 of the molar value.

Biological target: T1, Beta-glucuronidase (Homo sapiens, UniProt P08236)
T1 sequence (P08236 whole entry): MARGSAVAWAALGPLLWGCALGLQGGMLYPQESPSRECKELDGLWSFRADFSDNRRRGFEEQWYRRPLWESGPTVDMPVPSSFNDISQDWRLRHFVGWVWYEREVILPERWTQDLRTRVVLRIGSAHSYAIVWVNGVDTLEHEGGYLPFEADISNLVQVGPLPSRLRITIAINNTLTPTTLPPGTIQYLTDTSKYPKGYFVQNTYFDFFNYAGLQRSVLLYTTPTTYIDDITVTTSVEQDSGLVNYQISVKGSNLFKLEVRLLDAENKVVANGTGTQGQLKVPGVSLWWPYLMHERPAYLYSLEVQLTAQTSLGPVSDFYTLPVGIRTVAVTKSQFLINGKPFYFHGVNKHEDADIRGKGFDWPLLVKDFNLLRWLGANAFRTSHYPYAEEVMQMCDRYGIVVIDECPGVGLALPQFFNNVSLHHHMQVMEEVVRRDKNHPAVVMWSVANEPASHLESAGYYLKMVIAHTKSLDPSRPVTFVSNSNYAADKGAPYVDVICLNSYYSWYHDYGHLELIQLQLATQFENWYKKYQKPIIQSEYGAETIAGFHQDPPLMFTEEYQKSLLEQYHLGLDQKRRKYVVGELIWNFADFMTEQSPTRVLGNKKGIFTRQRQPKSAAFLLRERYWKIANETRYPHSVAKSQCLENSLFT
Assay: β-Glucuronidase Assay
Method: β-glucuronidase activity was determined in accordance to method used by Taha et al. [Taha et al., Bioorg. […] 250 μL was the volume of total reaction. Reaction mixture containing 5 μL of test compound solution, 185 μL of 0.1 M acetate buffer and 10 μL of enzyme solution were incubated for 30 min at 37 °C. […] To avoid precipitation, compound concentration was decreased and the volume of reaction was increased (200 μL). Precipitation probability was less thus addition of detergents was not needed.

Compound	pIC50
O=C(N/N=C/c1cccc(O)c1O)c1cc2cc(Cl)ccc2[nH]1 [(E)-5-chloro-N'-(2,3-dihydroxybenzylidene)-1H-indole-2-carbohydrazide (19)]	4.87
O=C(N/N=C/c1cc(O)ccc1O)c1cc2cc(Cl)ccc2[nH]1 [(E)-5-chloro-N'-(2,5-dihydroxybenzylidene)-1H-indole-2-carbohydrazide (23)]	5.12
COc1ccc(/C=N/NC(=O)c2cc3cc(Cl)ccc3[nH]2)c(O)c1 [(E)-5-chloro-N'-(2-hydroxy-4-methoxybenzylidene)-1H-indole-2-carbohydrazide (16)]	4.67
COc1ccc(O)c(/C=N/NC(=O)c2cc3cc(Cl)ccc3[nH]2)c1 [(E)-5-chloro-N'-(2-hydroxy-5-methoxybenzylidene)-1H-indole-2-carbohydrazide (6)]	4.61
O=C(N/N=C/c1ccccc1O)c1cc2cc(Cl)ccc2[nH]1 [(E)-5-chloro-N'-(2-hydroxybenzylidene)-1H-indole-2-carbohydrazide (26)]	4.60
O=C(N/N=C/c1ccc(O)c(O)c1)c1cc2cc(Cl)ccc2[nH]1 [(E)-5-chloro-N'-(3,4-dihydroxybenzylidene)-1H-indole-2-carbohydrazide (24)]	4.84
COc1ccc(/C=N/NC(=O)c2cc3cc(Cl)ccc3[nH]2)cc1O [(E)-5-chloro-N'-(3-hydroxy-4-methoxybenzylidene)-1H-indole-2-carbohydrazide (5)]	4.65
COc1ccc(/C=N/NC(=O)c2cc3cc(Cl)ccc3[nH]2)cc1 [(E)-5-chloro-N'-(4-methoxybenzylidene)-1H-indole-2-carbohydrazide (13)]	4.27
Cc1ccc(/C=N/NC(=O)c2cc3cc(Cl)ccc3[nH]2)cc1 [(E)-5-chloro-N'-(4-methylbenzylidene)-1H-indole-2-carbohydrazide (1)]	4.36
O=C(N/N=C/c1ccccn1)c1cc2cc(Cl)ccc2[nH]1 [(E)-5-chloro-N'-(pyridin-2-ylmethylene)-1H-indole-2-carbohydrazide (17)]	4.64
O=C(N/N=C/c1cccnc1)c1cc2cc(Cl)ccc2[nH]1 [(E)-5-chloro-N'-(pyridin-3-ylmethylene)-1H-indole-2-carbohydrazide (18)]	4.35
O=C(N/N=C/c1ccncc1)c1cc2cc(Cl)ccc2[nH]1 [(E)-5-chloro-N'-(pyridin-4-ylmethylene)-1H-indole-2-carbohydrazide (27)]	4.37
O=C(N/N=C/c1ccc(F)c(Br)c1)c1cc2cc(Cl)ccc2[nH]1 [(E)-N'-(3-bromo-4-fluorobenzylidene)-5-chloro-1H-indole-2-carbohydrazide (33)]	4.84
O=C(N/N=C/c1ccc(Cl)cc1)c1cc2cc(Cl)ccc2[nH]1 [(E)-N'-(4-chlorobenzylidene)-5-chloro-1H-indole-2-carbohydrazide (34)]	4.43
COC(=O)c1ccc(/C=N/NC(=O)c2cc3cc(Cl)ccc3[nH]2)cc1 [Methyl (E)-4-((2-(5-chloro-1H-indole-2-carbonyl)hydrazono)methyl)benzoate (15)]	4.65
